Measured values from patent US8350032B2, “Integrated photoactive agents for real-time monitoring of hemostasis” (MediBeacon Development, LLC, priority 2007, dated 2013).

Test system: production of thrombin via activation of the extrinsic cascade (tissue factor pathway)
Assay: whole blood activity screen: inhibition of thrombin production when clotting is activated via the tissue factor pathway (extrinsic cascade)
Format: biochemical
Conditions: nine concentrations, in triplicate, FIG. 4
Method: The compound (MP3117) of Example 1 was tested for its ability to inhibit the production of thrombin via activation of the extrinsic cascade. In particular, an assay that included a whole blood activity screen was performed. In this regard, nine aqueous solutions containing varying concentrations of the compound of Example 1 were tested for their ability to inhibit thrombin production when clotting was activated via the tissue factor pathway (in triplicate). The data from the assay was also utilized to extract the IC50 for the compound. Incidentally, “IC50” refers to the amount of a compound necessary to inhibit 50% of the active enzyme to which it binds.

N=C(N)c1ccc(CNC(=O)c2nc(N)c(C(=O)NCc3ccc(C(=N)N)cc3)nc2N)cc1 [Example 1, 3,6-diamino-N2,N5-bis(4-carbamimidoylbenzyl)pyrazine-2,5-dicarboxamide] was tested. Which IC50 did it give?
Its IC50 is 0.0124 ± 0.00079 µM.
